# Results taken from a melting point compilation (Tetko et al.; mined from patent text by program, amines drawn as free bases though some values may be those of a salt).
row,Compound,melting point
1,FC(F)(F)c1ccc(-c2nccc(Oc3cccc(C(F)(F)F)c3)n2)cc1,66 to 67 °C
2,COc1ccc2c(c1)CCC1C3CC4OCCOC4C3(C)CC(=O)C21C (stereo not given),142 to 145 °C
3,NC(=O)c1cc(-n2cccn2)ccc1N,147 to 149 °C
4,O=C(O)c1nc2c(=O)[nH]c3cc(C(F)(F)F)ccc3n2c1CP(=O)(O)O,> 250 °C
5,Cc1cc(O)c(SCC(C)C)c(=O)o1,106 to 108 °C
6,COc1ccc(COc2cccc(OC)c2C(=O)/C=C(\Nc2cnc(C#N)cn2)SC)cc1,128 to 135 °C
7,CCC(Sc1ccc(CCC(=O)O)c(C)c1)c1ccc2nc(-c3ccc(C(F)(F)F)cc3)sc2c1 (stereo not given),105 to 108 °C
8,Cc1nnc(-c2ccc3occ(-c4ccc(SCF)cc4)c3c2)o1,143 to 144 °C
9,Clc1ccc(-n2cc(Br)cn2)cc1,75 to 76 °C
10,Cc1sc(Cc2ccccc2)c(-c2ccc(-c3ccc(OS(=O)(=O)c4ccc(C(=O)O)c(O)c4)cc3)cc2)c1C,173 to 175 °C
11,O=C(Nc1cccnc1)N1CCN(c2nccc(-c3cccc(F)c3)n2)CC1,210 to 211 °C
12,CC(C)(C)C1=C(C#N)C(c2cccc(C#N)c2Br)c2c[nH]nc2N1 (stereo not given),251 °C
13,CN(C)c1ccc(C2(CN)CCCC2)cc1,87 to 89 °C
14,COc1cc2c(cc1OC)C(COCCN1CCN(c3ccc(F)cc3)CC1)OCCC2 (stereo not given),114 °C
15,CNC(=O)c1ccc(C(=O)OC)cc1N,167 to 168 °C
16,O=[N+]([O-])c1c[nH]c(-c2c(Cl)cc(C(F)(F)F)cc2Cl)n1,254 to 255 °C
17,COc1ccc(CCOc2nccc(-c3cccc(C(=O)O)c3)n2)cc1OC,171 to 172 °C
18,O=C(Nc1ccc(-n2nc(C3CC3)cc2C2CC2)c(F)c1)c1c(F)cccc1F,182 to 186 °C
19,CCn1c(COC(N)=O)nc(C2CC2)c1Sc1cc(C#N)cc(C#N)c1,170 to 172 °C
20,O=[N+]([O-])c1ccc2c(c1)O[C@@H](CNCc1ccccc1)CO2,98 °C
21,Cc1cc(-n2c(C)nc3ccccc32)ccc1[N+](=O)[O-],144 to 146 °C
22,O=C1N(c2ccc(I)cc2)CCCC1(Cl)Cl,153 to 155 °C
23,O=C(Nc1ccc(N2CCCC2)cc1)N(C[C@H]1CC[C@H](CN(C(=O)Nc2ccc(N3CCCC3)cc2)C2CCCCCC2)CC1)C1CCCCCC1,152 to 155 °C
24,CC(NC(C)CN(CC(C)NC(C)=C1C(=O)CC(C)(C)CC1=O)C(=O)/C=C\C(=O)O)=C1C(=O)CC(C)(C)CC1=O (stereo not given),68 to 70 °C
25,COc1c(Br)cc2c3c(cccc13)C(=O)N(O)C2=O,223 to 227 °C

row,Compound,melting point
1,C#CCOc1cc(-c2ncc(C(F)(F)F)cc2Cl)c(F)cc1Cl,97 to 98 °C
2,CC(C)COC(=O)N[C@H](CCCNC(=O)OCc1ccccc1)C(=O)NCc1ccc(CC(N)=O)cc1,145 °C
3,CC(=O)N1CCN(CC(=O)Nc2ccc3[nH]c(=O)c4cccc5c4c3c2C5)CC1,155 to 157 °C
4,Cn1c(=O)oc2c(OC3CCCCO3)cccc21 (stereo not given),128 to 129 °C
5,COc1cc(C(=O)N2CCC(CCN3CCC(C(=O)c4nc5ccccc5n4Cc4ccc(F)cc4)CC3)(c3ccc(Cl)c(Cl)c3)C2)cc(OC)c1OC (stereo not given),87 to 90 °C
6,COC(=O)c1sc(C)c2ncn(Cc3ccc(-c4ccccc4-c4nnn[nH]4)cc3)c12,188 to 189 °C
7,N#CC(N)c1ccc(F)cc1 (stereo not given),77.9 °C
8,C[C@H]1[C@H](N)CN1c1c(F)c(N)c2c(=O)c(C(=O)O)cn(C3CC3)c2c1F (relative stereo),206 to 210 °C
9,O=C(C=Cc1ccsc1)Nc1nnn[nH]1,273 to 274 °C
10,Cc1cccc2c1nc(COc1ccc(Cl)cc1)n2CCC(C)C(=O)NCCCN1CCCCC1 (stereo not given),102 to 103 °C
11,CC(=O)Nc1cc(F)ccc1S(=O)(=O)CC#N,131 to 132 °C
12,COc1ccc(Cl)cc1C(=O)Cl,59 to 60 °C
13,CC1(C)C(c2ccc(O)cc2)C1(Cl)Cl (stereo not given),111 to 112 °C
14,O=C(O)c1c(F)ccc([N+](=O)[O-])c1C(F)(F)F,190 °C
15,COc1cccc(OC)c1-c1ccccc1P(C1CCCCC1)C1CCCCC1,163 to 165 °C
16,c1ccc2c(c1)CN(NC1=NCCO1)C2,220 to 223 °C
17,OCC1OC(n2cnc3c(Nc4ccccc4Cl)ccnc32)C(O)C1O (stereo not given),207 °C
18,Nc1ncc(Cl)c(Cl)c1Cl,160 to 162 °C
19,CN1C(=O)Cn2cc(C(=O)NCc3ccc(Cl)cc3)c(=O)c3cc(CN4CCOCC4)cc1c32,213 to 214 °C
20,C=CCOc1ccccc1-c1ccc(C(N)=O)c(=O)[nH]1,210 to 212 °C
21,CCOC(=O)Cn1c(C)cnc(NCC(F)(F)c2ccccc2)c1=O,106 to 110 °C
22,CCCC[C@H](NC(=O)[C@H](CC(C)C)NC(=O)c1ccccc1C)C(=O)CSCc1ccco1,118 to 119 °C
23,O=C(CCCCC1(C(=O)O)CC1)CCCCC1(C(=O)O)CC1,132 to 134 °C
24,CC(CN=C1c2cccc3cccc(c23)N1C(c1ccccc1)c1ccccc1)Cn1ccnc1 (stereo not given),51 to 56 °C
25,CCCOC(Cc1ccc(OCCc2nc(-c3ccccc3)oc2C)c2ccccc12)C(=O)O (stereo not given),103 to 105 °C

row,Compound,melting point
1,Cc1cc(C)cc(Oc2cccc([N+](=O)[O-])n2)c1,94 to 95 °C
2,O=c1[nH]c(-c2ccccc2)nc(-c2ccncc2)c1Br,> 300 °C
3,CS(=O)(=O)Nc1cc(N)c(F)cc1C#N,235 °C
4,O=c1[nH]c2cc(Cl)ccc2c(O)c1Sc1ccccc1Br,> 300 °C
5,CC(=O)OCC(C)C1=CCC2C3CC=C4CC(OC(C)=O)CCC4(C)C3CCC12C (stereo not given),116 to 117 °C
6,O=c1[nH]nc(Cl)cc1Nc1ccncn1,> 300 °C
7,O=C1CCCN1C1=NC(CF)(CF)Oc2ccc([N+](=O)[O-])cc21,195 to 198 °C
8,CNc1ccc(N)cc1[N+](=O)[O-],115 to 116 °C
9,COc1ccc(N(C(=O)CN2C(=O)C(Cc3cc(C)n[nH]3)C(=O)N(c3ccccc3)c3ccccc32)C(C)C)cc1 (stereo not given),156 to 159 °C
10,COc1cccc(Oc2cccc(Oc3ccc4c(c3)OCO4)c2C(=O)O)c1,146 to 148 °C
11,Cc1cnc2c(NC(=O)c3c(Cl)cccc3Cl)cccc2c1Cl,216 to 227 °C
12,CN1CC(C(=O)c2c[nH]cc2Cc2ccc(F)cc2)=C(O)C1=O,265 to 267 °C
13,O=c1c(Cl)c(S(=O)C2CCCCC2)cnn1-c1ccccc1 (stereo not given),128 to 130 °C
14,COC(=O)c1cc(S(C)(=O)=O)ccc1OC,113 to 115 °C
15,c1ccc(COc2cccc3sncc23)cc1,47 to 49 °C
16,O=c1ccn(-c2cccc(F)c2)nc1-c1ccnn1-c1ccccc1,170 to 171 °C
17,O=C(c1ccc(F)cc1)c1ccc2[nH]c(=O)nc(-c3cccc(Cl)c3)c2c1,226 °C
18,CC=CCOc1cc(OC)cc(C(=O)OC)c1,140 to 141 °C
19,CN(CCc1cccc(OCc2ccccc2)c1)c1cnc(-c2ccccc2)c(-c2ccccc2)n1,78 to 78.5 °C
20,Cc1cccc(-c2cnn(-c3ccnc(-c4ccc(CN5CCOCC5)cc4)c3)c2)n1,128 °C
21,Cc1cc(C2=NN(C3=NCCS3)C(C)Cc3cc4c(cc32)OCO4)ccc1[N+](=O)[O-] (stereo not given),130 to 135 °C
22,O=C(NCCCCC1CCSS1)N1CCSC1 (stereo not given),76 to 77 °C
23,O=C1N(c2ccc(Cl)cc2)c2ncccc2C1(Cc1ccncc1)Cc1ccccn1 (stereo not given),193 to 195 °C
24,CN1CCN(C(=O)OC2c3ccc(C(F)(F)F)cc3C(=O)N2c2ccc3ccc(Cl)nc3n2)CC1 (stereo not given),219 °C
25,CCN(CC)c1ccc(C2(N(c3ccc(NC(C)=O)cc3)c3ccc(NC(C)=O)cc3)OC(=O)c3ccccc32)c(C)c1 (stereo not given),179 to 182 °C

row,Compound,melting point
1,C#CC1(OC(C)=O)CCC2C3CCc4cc(OC)ccc4C3CCC21CC (stereo not given),178 to 182 °C
2,C[C@H](CSC(=O)c1ccccc1)C(=O)N(CC(=O)OC(C)(C)C)C1CCCC1,54 to 56 °C
3,Cc1cc2c(cc1Cl)N(C(=O)CN1CCN(c3ncccn3)CC1)c1ccccc1N(C)S2(=O)=O,180 to 182 °C
4,O=P1(C2CCCC2)c2ccccc2CN1c1ccccc1 (stereo not given),123 to 125 °C
5,CCCc1oc(-c2ccccc2)nc1COc1ccc(CO)cc1,79 to 80 °C
6,CN1CCC(c2cn(S(=O)(=O)c3ccccc3)c3ccc(OS(=O)(=O)c4ccccc4)cc23)CC1,123 to 127 °C
7,Cc1nc2ccccc2c2ccc(F)cc12,92 to 93 °C
8,CC(=NO)C(=O)C(C)(C)C,107 to 110 °C
9,CC(C)Cn1c(=O)n(C)c(=O)c2cnc(N)nc21,249 to 250 °C
10,CC(=S)NC[C@H]1CN(c2ccc(N3CCOCC3)c(F)c2)C(=O)O1,158 °C
11,CSC(=C[N+](=O)[O-])NCCSCc1ccccn1,95.5 to 96.5 °C
12,O=S1(=O)Cc2ccc(Cl)cc2C(c2ccc(F)cc2)=NN1,195 to 198 °C
13,Cc1nc(-c2ccsc2)c2nc(-c3ccccc3)cc-2[nH]1,232 to 233 °C
14,CC(=O)Nc1c(C(=O)c2cccc(Cl)c2)[nH]c2cc(Cl)ccc12,152 to 154 °C
15,CCN(CC)CCOc1ccc(Nc2ncc3c(n2)N(C)C(=O)N(C2CCCCC2)C3)cc1,90 to 92 °C
16,Cc1cc(=S)cc(C)n1CCNC(=O)OC(C)(C)C,175 to 178 °C
17,COCc1c[nH]c2c([N+](=O)[O-])ccc(C)c2c1=O,210 to 213 °C
18,COCCOC[C@H](CC1(C(=O)N[C@H]2CC[C@@H](C(=O)O)CC2)CCCC1)C(=O)O,108 °C
19,COc1ccc(Br)cc1S(=O)(=O)NC(C)(C)CO,168 °C
20,CCOC(=O)c1c(-c2ccc(OC)c(OC)c2)c2cc(Cl)ccc2n(C)c1=O,104 to 106 °C
21,Cc1nc(-n2cc(-c3ccccc3)nn2)sc1C(=O)NCc1ccccc1,175 to 178 °C
22,CC(=O)N1CCC(=O)C(C(c2ccc(F)cc2)c2ccc(F)cc2)C1 (stereo not given),146 to 147 °C
23,CN1C(=O)C(=O)N(Cc2ccccc2)CC1(CCOC1CCCCO1)c1ccc(Cl)c(Cl)c1 (stereo not given),178 °C
24,O=C(CSc1ncc(Br)cn1)c1ccccc1,107 to 109 °C
25,CC(C)(C)C(=O)Nc1nn(C(=O)C(C)(C)C)c(N)c1C#N,181 to 184 °C
